According to ChEMBL document CHEMBL5291721, “A preclinical secondary pharmacology resource illuminates target-adverse drug reaction associations of marketed drugs” (Nat Commun, 2023):

Assays:
Melanocortin receptor 4 = Melanocortin receptor 4 (Homo sapiens, UniProt P32245)
[1] = biological target: Beta-2 adrenergic receptor (Homo sapiens, UniProt P07550)
[2] = biological target: T1, Alpha-2A adrenergic receptor (Homo sapiens, UniProt P08913); type: functional, cell-based
T1 sequence (P08913 whole entry): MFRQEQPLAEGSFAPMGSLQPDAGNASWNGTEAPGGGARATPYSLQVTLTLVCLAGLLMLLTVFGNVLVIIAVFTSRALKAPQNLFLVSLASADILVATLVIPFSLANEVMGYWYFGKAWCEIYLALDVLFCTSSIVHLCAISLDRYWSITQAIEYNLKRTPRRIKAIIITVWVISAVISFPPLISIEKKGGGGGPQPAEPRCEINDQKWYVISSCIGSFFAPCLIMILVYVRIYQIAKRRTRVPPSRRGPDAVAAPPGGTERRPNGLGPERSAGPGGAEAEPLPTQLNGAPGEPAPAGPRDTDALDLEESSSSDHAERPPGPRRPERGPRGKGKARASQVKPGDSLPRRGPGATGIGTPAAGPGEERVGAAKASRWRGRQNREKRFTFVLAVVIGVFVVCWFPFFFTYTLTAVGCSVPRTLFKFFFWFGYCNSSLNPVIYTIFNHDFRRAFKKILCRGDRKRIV

Cannabinoid receptor 1 = Cannabinoid receptor 1 (Homo sapiens, UniProt P21554)
Sequence of Cannabinoid receptor 1 (P21554 whole entry): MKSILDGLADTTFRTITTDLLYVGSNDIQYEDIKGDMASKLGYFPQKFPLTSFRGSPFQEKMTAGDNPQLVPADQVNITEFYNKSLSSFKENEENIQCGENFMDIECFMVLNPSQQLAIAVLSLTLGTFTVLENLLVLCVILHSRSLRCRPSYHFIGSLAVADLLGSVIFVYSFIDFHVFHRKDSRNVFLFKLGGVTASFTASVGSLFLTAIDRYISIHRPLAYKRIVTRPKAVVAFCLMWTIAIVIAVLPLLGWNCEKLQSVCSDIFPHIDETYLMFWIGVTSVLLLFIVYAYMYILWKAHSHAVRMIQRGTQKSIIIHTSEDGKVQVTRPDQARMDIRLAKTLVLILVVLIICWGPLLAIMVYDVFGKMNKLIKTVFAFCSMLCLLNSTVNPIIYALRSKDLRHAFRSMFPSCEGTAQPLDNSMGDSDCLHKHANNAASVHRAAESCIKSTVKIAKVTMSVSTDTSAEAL

Glucocorticoid receptor = biological target: T2, Glucocorticoid receptor (Homo sapiens, UniProt P04150)
T2 sequence (P04150 whole entry): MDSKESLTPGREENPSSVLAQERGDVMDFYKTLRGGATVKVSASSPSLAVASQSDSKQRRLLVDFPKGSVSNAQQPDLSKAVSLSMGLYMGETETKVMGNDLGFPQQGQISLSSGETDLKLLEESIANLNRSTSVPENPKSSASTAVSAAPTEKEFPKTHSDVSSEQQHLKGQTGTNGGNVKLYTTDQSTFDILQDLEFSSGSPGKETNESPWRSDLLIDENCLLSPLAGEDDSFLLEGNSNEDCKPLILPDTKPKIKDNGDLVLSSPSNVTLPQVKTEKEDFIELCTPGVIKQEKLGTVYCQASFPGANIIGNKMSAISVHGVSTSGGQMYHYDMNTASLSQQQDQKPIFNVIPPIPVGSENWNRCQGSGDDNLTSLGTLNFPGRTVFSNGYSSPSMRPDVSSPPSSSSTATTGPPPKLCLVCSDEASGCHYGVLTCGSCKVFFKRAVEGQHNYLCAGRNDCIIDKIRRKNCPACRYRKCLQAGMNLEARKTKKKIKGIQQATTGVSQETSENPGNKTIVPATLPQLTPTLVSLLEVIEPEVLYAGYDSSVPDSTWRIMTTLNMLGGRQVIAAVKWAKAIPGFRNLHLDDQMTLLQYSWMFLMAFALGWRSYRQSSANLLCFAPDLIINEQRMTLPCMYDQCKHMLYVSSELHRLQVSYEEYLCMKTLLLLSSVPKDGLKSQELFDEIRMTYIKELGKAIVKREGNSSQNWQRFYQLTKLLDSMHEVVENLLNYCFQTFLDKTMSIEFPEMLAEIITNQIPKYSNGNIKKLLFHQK

[3] = biological target: cGMP-inhibited 3',5'-cyclic phosphodiesterase 3A (Homo sapiens, UniProt Q14432); type: functional
Sequence of cGMP-inhibited 3',5'-cyclic phosphodiesterase 3A (Q14432 whole entry): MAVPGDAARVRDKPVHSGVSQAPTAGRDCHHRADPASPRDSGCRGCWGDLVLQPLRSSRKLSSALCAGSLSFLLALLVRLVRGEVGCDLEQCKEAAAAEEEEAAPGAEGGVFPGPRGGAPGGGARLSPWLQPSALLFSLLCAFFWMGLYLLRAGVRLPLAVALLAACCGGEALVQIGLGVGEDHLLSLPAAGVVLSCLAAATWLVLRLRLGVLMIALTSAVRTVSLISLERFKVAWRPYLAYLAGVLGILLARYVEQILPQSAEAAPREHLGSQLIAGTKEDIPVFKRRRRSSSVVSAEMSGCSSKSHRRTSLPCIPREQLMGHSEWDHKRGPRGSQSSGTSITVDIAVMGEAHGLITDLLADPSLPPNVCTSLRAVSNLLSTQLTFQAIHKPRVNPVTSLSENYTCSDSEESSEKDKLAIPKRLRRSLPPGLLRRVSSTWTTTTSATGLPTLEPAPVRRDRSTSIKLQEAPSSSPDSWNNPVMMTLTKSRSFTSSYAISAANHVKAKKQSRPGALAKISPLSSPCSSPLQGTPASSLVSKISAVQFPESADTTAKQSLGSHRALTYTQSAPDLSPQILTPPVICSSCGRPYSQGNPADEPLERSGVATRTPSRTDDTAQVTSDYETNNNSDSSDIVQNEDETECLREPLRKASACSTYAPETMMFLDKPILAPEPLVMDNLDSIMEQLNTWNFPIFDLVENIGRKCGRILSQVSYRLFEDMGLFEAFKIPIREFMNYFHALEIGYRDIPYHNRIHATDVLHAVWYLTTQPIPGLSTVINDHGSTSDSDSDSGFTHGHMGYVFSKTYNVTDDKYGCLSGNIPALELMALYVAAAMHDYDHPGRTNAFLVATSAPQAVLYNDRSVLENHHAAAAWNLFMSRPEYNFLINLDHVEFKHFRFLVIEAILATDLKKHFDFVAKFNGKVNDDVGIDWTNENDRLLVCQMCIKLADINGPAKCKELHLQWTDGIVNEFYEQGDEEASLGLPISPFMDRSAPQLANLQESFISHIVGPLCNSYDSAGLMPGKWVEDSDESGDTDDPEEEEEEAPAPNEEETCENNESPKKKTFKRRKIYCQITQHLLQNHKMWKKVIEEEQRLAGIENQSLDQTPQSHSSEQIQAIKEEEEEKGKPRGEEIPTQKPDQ

Histamine H3 receptor = Histamine H3 receptor (Homo sapiens, UniProt Q9Y5N1)
Sequence of Histamine H3 receptor (Q9Y5N1 whole entry): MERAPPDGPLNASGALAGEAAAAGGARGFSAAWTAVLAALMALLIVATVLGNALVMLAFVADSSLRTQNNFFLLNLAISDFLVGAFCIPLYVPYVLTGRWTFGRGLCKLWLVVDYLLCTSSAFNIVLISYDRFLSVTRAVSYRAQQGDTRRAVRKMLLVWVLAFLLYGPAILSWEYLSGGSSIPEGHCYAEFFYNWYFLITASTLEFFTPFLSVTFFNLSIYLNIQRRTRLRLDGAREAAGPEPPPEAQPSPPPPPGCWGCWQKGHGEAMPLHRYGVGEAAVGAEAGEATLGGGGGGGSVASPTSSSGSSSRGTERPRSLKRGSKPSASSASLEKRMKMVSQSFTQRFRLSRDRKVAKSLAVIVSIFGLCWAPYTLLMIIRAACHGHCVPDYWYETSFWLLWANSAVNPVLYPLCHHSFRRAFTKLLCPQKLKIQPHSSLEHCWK

Prothrombin = Prothrombin (Homo sapiens, UniProt P00734); type: functional
[4] = biological target: T1, Alpha-2A adrenergic receptor
[5] = biological target: T3, Prostaglandin G/H synthase 1 (Homo sapiens, UniProt P23219); type: functional
T3 sequence (P23219 whole entry): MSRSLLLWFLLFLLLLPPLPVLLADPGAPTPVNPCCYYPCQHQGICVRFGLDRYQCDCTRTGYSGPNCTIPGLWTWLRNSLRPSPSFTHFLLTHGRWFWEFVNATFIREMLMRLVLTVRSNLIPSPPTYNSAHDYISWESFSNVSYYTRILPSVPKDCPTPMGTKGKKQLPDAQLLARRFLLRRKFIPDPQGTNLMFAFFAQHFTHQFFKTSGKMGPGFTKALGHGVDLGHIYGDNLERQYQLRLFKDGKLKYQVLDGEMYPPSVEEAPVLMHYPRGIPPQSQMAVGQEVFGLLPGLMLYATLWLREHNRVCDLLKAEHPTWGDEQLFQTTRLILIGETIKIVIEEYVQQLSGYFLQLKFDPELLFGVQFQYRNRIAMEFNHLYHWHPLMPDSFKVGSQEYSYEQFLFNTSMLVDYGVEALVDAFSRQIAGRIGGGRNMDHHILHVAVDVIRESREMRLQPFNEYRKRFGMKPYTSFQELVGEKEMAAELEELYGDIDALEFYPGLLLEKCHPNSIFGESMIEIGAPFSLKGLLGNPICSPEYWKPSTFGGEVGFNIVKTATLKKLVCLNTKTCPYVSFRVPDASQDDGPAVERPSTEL

[6] = biological target: T3, Prostaglandin G/H synthase 1; type: functional; remark: listed apart in the source
D(3) dopamine receptor = D(3) dopamine receptor (Homo sapiens, UniProt P35462)
Sequence of D(3) dopamine receptor (P35462 whole entry): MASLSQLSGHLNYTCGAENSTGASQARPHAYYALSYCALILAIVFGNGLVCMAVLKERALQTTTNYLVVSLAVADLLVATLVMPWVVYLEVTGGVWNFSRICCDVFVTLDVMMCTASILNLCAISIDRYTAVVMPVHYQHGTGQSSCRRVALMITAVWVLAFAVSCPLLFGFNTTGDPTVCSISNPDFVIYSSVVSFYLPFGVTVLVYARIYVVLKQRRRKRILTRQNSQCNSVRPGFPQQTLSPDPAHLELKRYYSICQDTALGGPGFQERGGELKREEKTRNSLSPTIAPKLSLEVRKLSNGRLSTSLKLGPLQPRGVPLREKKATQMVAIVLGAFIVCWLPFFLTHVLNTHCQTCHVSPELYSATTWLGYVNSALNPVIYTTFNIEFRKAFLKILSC

[7] = biological target: T4, Muscarinic acetylcholine receptor M2 (Homo sapiens, UniProt P08172)
T4 sequence (P08172 whole entry): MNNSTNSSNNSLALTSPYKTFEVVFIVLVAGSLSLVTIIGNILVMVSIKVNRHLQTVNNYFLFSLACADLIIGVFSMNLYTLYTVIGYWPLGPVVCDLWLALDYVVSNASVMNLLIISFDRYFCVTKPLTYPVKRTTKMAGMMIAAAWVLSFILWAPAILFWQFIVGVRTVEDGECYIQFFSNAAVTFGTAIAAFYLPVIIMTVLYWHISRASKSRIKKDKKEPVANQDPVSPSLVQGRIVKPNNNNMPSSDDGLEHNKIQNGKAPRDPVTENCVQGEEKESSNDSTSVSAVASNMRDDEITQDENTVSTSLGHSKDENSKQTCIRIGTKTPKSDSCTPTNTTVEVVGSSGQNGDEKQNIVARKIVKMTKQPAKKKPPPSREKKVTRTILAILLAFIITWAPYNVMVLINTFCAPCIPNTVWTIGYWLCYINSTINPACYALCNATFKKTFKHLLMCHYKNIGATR

[8] = biological target: T5, Alpha-1A adrenergic receptor (Homo sapiens, UniProt P35348); type: functional, cell-based
T5 sequence (P35348 whole entry): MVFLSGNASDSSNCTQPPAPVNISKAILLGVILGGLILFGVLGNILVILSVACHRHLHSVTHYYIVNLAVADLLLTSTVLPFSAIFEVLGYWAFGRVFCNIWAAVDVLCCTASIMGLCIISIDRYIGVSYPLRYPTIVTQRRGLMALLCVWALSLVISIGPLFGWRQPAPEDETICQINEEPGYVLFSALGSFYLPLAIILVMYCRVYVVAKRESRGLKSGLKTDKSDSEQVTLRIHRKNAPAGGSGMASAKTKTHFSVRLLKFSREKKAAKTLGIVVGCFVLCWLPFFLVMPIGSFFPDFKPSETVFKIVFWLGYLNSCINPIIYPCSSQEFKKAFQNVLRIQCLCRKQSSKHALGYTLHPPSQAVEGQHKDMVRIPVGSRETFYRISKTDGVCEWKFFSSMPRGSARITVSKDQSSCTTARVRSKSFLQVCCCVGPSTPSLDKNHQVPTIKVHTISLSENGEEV

[9] = biological target: Vascular endothelial growth factor receptor 2 (Homo sapiens, UniProt P35968); type: functional
Further: assay procedure not described here.

Sequence of Beta-2 adrenergic receptor (P07550 whole entry): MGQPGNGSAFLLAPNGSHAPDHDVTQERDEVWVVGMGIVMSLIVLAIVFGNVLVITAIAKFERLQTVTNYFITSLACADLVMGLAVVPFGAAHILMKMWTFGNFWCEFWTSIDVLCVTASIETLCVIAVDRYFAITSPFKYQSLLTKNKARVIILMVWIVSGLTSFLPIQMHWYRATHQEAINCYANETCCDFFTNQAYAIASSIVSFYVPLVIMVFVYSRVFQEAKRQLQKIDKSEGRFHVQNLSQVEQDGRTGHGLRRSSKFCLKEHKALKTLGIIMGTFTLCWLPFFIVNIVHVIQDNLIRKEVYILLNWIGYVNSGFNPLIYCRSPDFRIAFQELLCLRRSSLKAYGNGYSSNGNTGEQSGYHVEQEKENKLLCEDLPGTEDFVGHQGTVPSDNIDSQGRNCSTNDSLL
Sequence of Melanocortin receptor 4 (P32245 whole entry): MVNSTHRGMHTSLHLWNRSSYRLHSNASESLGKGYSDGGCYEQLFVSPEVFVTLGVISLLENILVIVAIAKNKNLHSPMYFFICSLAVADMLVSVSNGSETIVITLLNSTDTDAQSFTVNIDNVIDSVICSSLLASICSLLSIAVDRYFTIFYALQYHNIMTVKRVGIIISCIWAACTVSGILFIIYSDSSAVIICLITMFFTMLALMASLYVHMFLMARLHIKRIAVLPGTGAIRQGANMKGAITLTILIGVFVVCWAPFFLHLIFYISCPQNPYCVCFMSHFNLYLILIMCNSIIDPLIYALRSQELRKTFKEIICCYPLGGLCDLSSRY

SMILES	AC50 (Melanocortin receptor 4) [µM]	AC50 [1] [µM]	AC50 [2] [µM]	AC50 (Cannabinoid receptor 1) [µM]	AC50 (Glucocorticoid receptor) [µM]	AC50 [3] [µM]	AC50 (Histamine H3 receptor) [µM]	AC50 (Prothrombin) [µM]	AC50 [4] [µM]	AC50 [5] [µM]	AC50 [6] [µM]	AC50 (D(3) dopamine receptor) [µM]	AC50 [7] [µM]	AC50 [8] [µM]	AC50 [9] [µM]
CCCCC1C(=O)N(c2ccccc2)N(c2ccccc2)C1=O [PHENYLBUTAZONE]	> 30	> 10	> 10	> 10	> 10										
[H]/N=C(/N)N/C(=N/[H])NCCc1ccccc1 [PHENFORMIN]	> 30	> 10	> 10	> 30	> 30										
CC[C@@H]([C@H](C)O)n1ncn(-c2ccc(N3CCN(c4ccc(OC[C@@H]5CO[C@@](Cn6cncn6)(c6ccc(F)cc6F)C5)cc4)CC3)cc2)c1=O [POSACONAZOLE]						> 30	> 30	> 30	> 30	> 30	> 30	> 30	> 30		
Cc1cc(C(C)(C)C)cc(C)c1CC1=NCCN1 [XYLOMETAZOLINE]		> 30	0.0616		> 30										
CC(N)C(O)c1ccccc1 (stereo not given) [PHENYLPROPANOLAMINE]	> 30	> 10	> 10	> 10	> 30									> 30	
OC1(c2ccc(Cl)cc2)c2ccccc2C2=NCCN21 (stereo not given) [MAZINDOL]	> 30	> 30	> 30	> 10	> 30									> 30	
CC(C(=O)O)c1ccc(-c2ccccc2)c(F)c1 (stereo not given) [FLURBIPROFEN]	> 10	> 10	> 10	> 10	> 30	> 30	> 30	> 30	> 30			> 30	> 30		
O=C(O)c1cn(C2CC2)c2cc(N3CCNCC3)c(F)cc2c1=O [CIPROFLOXACIN]	> 30				> 30	> 30		> 30							
CC(C)NCC(O)c1ccc(O)c(O)c1 (stereo not given) [ISOPROTERENOL]	> 30			> 10	> 30										
CC(C(=O)O)c1ccc(CC2CCCC2=O)cc1 (stereo not given) [LOXOPROFEN]		> 30	> 30											> 30	
CC(CCc1ccc(O)cc1)NCCc1ccc(O)c(O)c1 (stereo not given) [DOBUTAMINE]	> 30	5.07	> 30	> 30	> 30										
COc1ccc(CN(CCN(C)C)c2ccccn2)cc1 [PYRILAMINE]						> 30	> 30	> 30	7.07	> 30	> 30		8.61		> 30
CCCCC(=O)O[C@]1(C(=O)CO)[C@@H](C)C[C@H]2[C@@H]3CCC4=CC(=O)C=C[C@]4(C)[C@@]3(F)[C@@H](O)C[C@@]21C [BETAMETHASONE VALERATE]	> 30	> 10	> 10	> 10	0.004									> 30	
CCN(CC)C(=S)S [DITIOCARB]						> 30	> 30	> 30	> 30	10.3	> 30	> 30	> 30		
CN(C)CCCNc1c2ccccc2nc2cccc([N+](=O)[O-])c12 [NITRACRINE]		> 30	> 30		> 30									6.7	
CNC1=Nc2ccc(Cl)cc2C(c2ccccc2)=[N+]([O-])C1 [CHLORDIAZEPOXIDE]	> 30	> 10	> 10	> 10	> 30									> 30	
CCCN[C@H]1CCc2nc(N)sc2C1 [PRAMIPEXOLE]	> 30	> 30												13	
CN1CCC(=C2c3ccccc3CCc3cccnc32)CC1 [AZATADINE]	> 30	> 10	> 10	> 10										> 30	
CCOC(=O)C1=C(C)NC(C)=C(C(=O)OC)C1c1cccc([N+](=O)[O-])c1 (stereo not given) [NITRENDIPINE]	> 30	> 10	> 10	> 10										> 30	
CC12CC3CC(C)(C1)CC(N)(C3)C2 [MEMANTINE]	> 30	> 10	> 10	> 10	> 30									> 30	
Cc1noc(NS(=O)(=O)c2ccc(N)cc2)c1C [SULFISOXAZOLE]	> 10	> 10	> 10	> 10										22	
Cc1cc2cc3c(C)cc(=O)oc3c(C)c2o1 [TRIOXSALEN]	> 10	> 10	> 10	> 10											
Cc1cnc(C(=O)NCCc2ccc(S(=O)(=O)NC(=O)NC3CCCCC3)cc2)cn1 [GLIPIZIDE]	> 30	> 10	> 10		> 30	> 30	> 30	> 30	> 30						
CCCC(CCC)C(N)=O [VALPROMIDE]	> 30	> 10	> 10	> 10	> 30									> 30	
CCC[C@H](NC(=O)[C@@H]1[C@H]2CCC[C@H]2CN1C(=O)[C@@H](NC(=O)[C@@H](NC(=O)c1cnccn1)C1CCCCC1)C(C)(C)C)C(=O)C(=O)NC1CC1	> 30	> 10		> 10	> 30										
C=C1CC[C@H](O)C/C1=C/C=C1\CCC[C@]2(C)[C@@H]([C@H](C)/C=C/[C@H](C)C(C)C)CC[C@@H]12 [ERGOCALCIFEROL]						> 30	> 30	> 30	> 30	> 30	20.3	> 30	> 30		
